As usually defined, the Ki is a measure of affinity in units of concentration, obtained from inhibition or displacement. Low readings indicate a stronger hold on the target, high ones a looser hold on the target. One may read the kcat as the maximal rate divided by the concentration of active sites. As a reminder, the IC50 is the concentration at which inhibition is half-maximal.

SMILES strings stand for the structures. Values after ≈ are worked out from the molar mass of the structure shown. Values joined by “and” are separate entries in the source; they are usually repeats but may differ in a detail not shown here. Identical values can stand only once.

The target in assay [1] is T1, HepI (Escherichia coli, UniProt P24173).
T1 construct: made in house; host or cells: E. coli One Shot BL-21-AI
T1 sequence (P24173 whole entry): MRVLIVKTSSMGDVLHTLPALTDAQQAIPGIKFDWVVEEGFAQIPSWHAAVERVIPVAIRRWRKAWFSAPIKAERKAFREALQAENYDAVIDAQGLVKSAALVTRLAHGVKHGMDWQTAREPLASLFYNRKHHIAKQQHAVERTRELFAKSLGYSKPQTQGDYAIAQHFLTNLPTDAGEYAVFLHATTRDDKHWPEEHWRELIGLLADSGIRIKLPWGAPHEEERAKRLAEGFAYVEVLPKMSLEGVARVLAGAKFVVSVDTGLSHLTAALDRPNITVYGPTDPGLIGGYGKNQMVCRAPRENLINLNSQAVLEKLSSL
Nature of the assay: Intrinsic tryptophan fluorescence of HepI. In kind it is binding, E. coli K12. The following applies: for Blue shift of HepI tryptophan emission λmax: HepI plus ligand alone, vs apo; for Blue shift of HepI tryptophan emission λmax with ODLA and inhibitor: inhibitor added to HepI•ODLA complex. As to the method:
Fluorescence spectra were measured in triplicate at room temperature using 200 μL samples containing 1 μm HepI, in a 10 mm HEPES, 50 mm KCl, and 10 mm MgCl2, pH = 7.5 buffer. Samples were contained in Starna 45-Q-3 cells (minimum volume 200 µL). Substrate and inhibitor concentrations were 100 μM. All measurements were taken using a Fluoromax-4 fluorometer with an excitation slit bandpass of 2 nm and an emission slit bandpass of 3 nm (λex = 290 nm, λem = 310–450 nm). The data was subtracted from blanks, normalized and fit to a lognormal distribution (Eq. 7)[36] to determine the emission maximum (λmax) with in house scripts written in MATLAB R2018A.7 Iλ=Imax·e^-ln2/ln^2ρ·ln^2(a-λ/a-λmax)

For the next assay, the target named is T2, HepI R60A (Escherichia coli, UniProt P24173, R60A).
T2 construct: made in house; host or cells: E. coli One Shot BL-21-AI (stated for HepI in general)
T2 sequence (P24173 whole entry R60A): as the sequence (P24173 whole entry) above, with R60A counted along it
Nature of the assay: HepI inhibition, ADP/NADH coupled assay (R60A mutant). In kind it is biochemical, E. coli K12. Conditions: for ΔΔG (kcal/mol) Exp: Arg60Ala relative to WT; for ΔG (kcal/mol) Exp: Arg60Ala, from Ki; for kcat: HepI R60A in presence of inhibitor. As to the method: As previously reported[11],[14],[15], an ADP/NADH coupled assay was used to monitor HepI activity by monitoring the absorbance change at 340 nm at 37 °C on a Cary Bio 100 UV–Vis Spectrometer. Under normal conditions, the assay buffer was composed of 50 mM HEPES, 50 mM KCl, 10 mM MgCl2, pH 7.5. The coupled enzyme reaction additionally contained 100 μM phosphoenolpyruvate, 100 μM NADH, 100 μM dithiothreitol (DTT) and 0.05 U/μL of both pyruvate kinase and lactate dehydrogenase. 100 μM ADPH was used when ODLA concentration was varied and 100 μM ODLA was used when ADPH was varied. Once a stable baseline was established (~ 5 min), the reaction was initiated by addition of HepI to a final concentration of 50 nM or 100 nM (for high and lower substrate concentrations respectively) and all reported reaction rates are after background subtraction. When running 12 samples at once, plastic cuvette stirs and a repeat pipettor was used to inject 200 μL enzyme. Inhibition of HepI was monitored using the same ADP/NADH coupled assay, all conditions of the assay were the same as previously described unless otherwise stated. Ki values for each of the compounds were determined by varying compound final concentration from 100 μm to 10 nm, and a final concentration of 10 μM ODLA. Competition assays against ADPH were done with excess ODLA (100 μM) and varying ADPH from 2–0.25 μM. Competition assays against ODLA were done with excess ADPH (100 μM) and varying ODLA from 2–0.25 μM. Reactions were started with addition of enzyme and inhibitor was varied from 30–0.01 μM. Kinetics were fit to Lineweaver-Burke (Eq. 1), competitive (Eq. 2), non-competitive (Eq. 3), mixed (Eq. 4), Dixon (Eq. 5), or Cornish-Bowden (Eq. 6) models. All fitting and plotting was done through MATLAB R2018A.1 1/V1/[S]=KM/Vmax[S]+1/Vmax 2 V[S]=Vmax[S]/KM1+[I]/Ki+[S] 3 V[S]=Vmax[S]/1+([I]/Ki)/KM+[S] 4 V[S]=Vmax[S]/KM(1+[I]/Ki)+[S](1+[I]/αKi) 5 1/V[I]=KM1+I/Ki+[S]1+I/αKi/Vmax[S] 6 [S]/V[I]=KM1+I/Ki+[S]1+I/αKi/Vmax

Assay [2] has as its system LPS production in E. coli K12. Nature of the assay: LPS visualization gels of lipid extracts from growth challenge samples. In kind it is cell-based. Conditions: for Concentration range over which LPS production decreases: E. coli K12, lipids from 4 × 10^8 cells; for IC50: Escherichia coli, E. coli K12, silver-stained gels, inflection point of sigmoid fit, read-out: IC50 of LPS production (LPS band pixel density). As to the method: The assays were prepared by plating E. coli K12 onto an LB-agar plate and grown overnight (12–18 h)[60]. A colony forming unit was chosen to inoculate 10 mL of fresh LB media in a tightly capped 15 mL falcon tube and placed in an incubator (no agitation) at 37 °C for exactly 24 h to increase the number of viable cells for inoculation of the plate and thusly reproducibility in highly variable growth patterns. A 96-well plate was then filled with a variety of inhibitor concentrations taken from stock solutions made up in ultra-pure water allowing for one row to remain free of the inhibitor. Each inhibitor concentration was given 3-wells to ensure a triplicate of data is collected at once. With the same fresh media used to make the overnight culture, the overnight growths were added to the plate in a 1:1000 dilution (total volume 200 uL) and the plate sealed with clear adhesive plastic sealant. One row has been designated for uncultured media to be used for pre-blanking measurements and to ensure that the media isn’t growing spontaneously.
As previously established, lipid extraction occurs through lysis of surface polysaccharides with a lysis buffer containing 1% SDS, 20% glycerol, 100 mM Tris–HCl and 0.04% bromophenol blue at a pH 6.8[61]. The cellular concentrations from each well were determined using the last collected OD600 corrected using Eq. (8), centrifuged and resuspended in the correct volume of lysis buffer to obtain 4 × 10^8 cells/100 µL solution. Addition of Proteinase K at 1 mg/mL concentration was incubated for 1 h at 37 °C. These samples were then loaded onto a 15% separating, 6% stacking SDS–polyacrylamide gel (recipes received from https://www.bio-rad.com/) in a 19:1 acrylamide to bis-acrylamide ratio and run with a voltage gradient from 50–150 V. The gels were then stained using the protocol described previously with no modifications[62] and imaged using a scanner.
Relative LPS band density was determined using analysis methods provided by ImageJ software. The band pixel density were analyzed relative to a purified sample of heptosylated O-deacylated Lipid A at 100 nM. The plot was generated of relative band density vs. concentration of inhibitor[63].

Assay [3] has as its target T1, HepI. Nature of the assay: Circular dichroism thermal melt of HepI. The class given is binding, E. coli K12. The following applies: CD melt; for Increase in unfolding compared to apo HepI: HepI plus inhibitor, no ODLA; for Difference in melting temperature of HepI•ODLA complex caused by inhibitor: destabilization of HepI•ODLA. The method, then: Circular dichroism melt experiments were performed in a Jasco J-810 spectropolarimeter in Starna 21-Q-2 cells (minimum volume 400 µL) sealed with Teflon tape to prevent evaporation. Parameters include 3 accumulations of data collected between 195–275 nm as a function of temperature (10–95 °C with 5° increments) at a ramp rate of 2°/min and a scanning rate of 50 nm/min. Samples were prepared by diluting a mixture of 5 μM HepI and some combination of 250 μM substrate/product and/or 100 μM inhibitor in a buffer of 10 mM Tris–HCl and 100 mM KCl (pH = 7.5). CD data was analyzed via in house script written in MATLAB R2018A that average a set of triplicate data, normalizes to a percent unfolded (assuming the protein is fully folded at 5 °C) at 222 nm as a function of temperature and fits to a sigmoid curve to determine the melt temperature (TM).
In general terms: CD spectra are sensitive to the conformation of chiral molecules.

Consider `NC[C@H]1O[C@H](O[C@H]2[C@H](O)[C@@H](O[C@H]3O[C@H](CO)[C@@H](O)[C@H](N)[C@H]3O)[C@H](N)C[C@@H]2N)[C@H](N)C[C@@H]1O` [Tobramycin], for which, at HepI [1], the “Blue shift of HepI tryptophan emission λmax” value is given as “did not alter the λmax”; the “Blue shift of HepI tryptophan emission λmax with ODLA and inhibitor” value is listed as 6 nm. Besides, on HepI R60A, the affinity corresponds to a Ki of 3.4 ± 0.631 µM, the “ΔΔG (kcal/mol) Exp” value came to 0.7 ± 0.1 kcal/mol, the “ΔG (kcal/mol) Exp” value was -7.5 ± 0.1 kcal/mol and the “kcat” value was 0.111 ± 0.013 s⁻¹. For the same compound, in assay [2] (E. coli K12), the “Concentration at which no LPS is detectible” value was at least 7.5 ng/mL. Further, in assay [2], the “Concentration range over which LPS production decreases” value was 5 to 7 ng/mL and the IC50 is 0.0064 ± 0.0001 µg/mL (≈ 0.0137 µM). Moreover, on HepI [3], the “Increase in unfolding compared to apo HepI” value was found to be 20% and the “Difference in melting temperature of HepI•ODLA complex caused by inhibitor” value was over 30 °C. Moreover, the “Melting temperature (Tm) of HepI with ligand” value at HepI [3] (HepI plus ligand alone) was ~ 37 °C. Moreover, at HepI [3] (compared with HepI with ADPH alone), the “Melt of HepI with ADPH and inhibitor” value is “no changes from HepI with ADPH alone”. On HepI [3] (inhibitor added to HepI•ODLA), the “Extent of unfolding of HepI•ODLA complex with inhibitor” value is on record as “about 70%” and the “Melting temperature of HepI•ODLA complex with inhibitor” value was ~ 58 °C.

With `[H]/N=C(/N)N[C@H]1[C@H](O)[C@@H](O)[C@H](O[C@@H]2O[C@@H](C)[C@](O)(C=O)[C@H]2O[C@@H]2O[C@@H](CO)[C@H](O)[C@@H](O)[C@@H]2NC)[C@@H](N/C(N)=N\[H])[C@@H]1O` [Streptomycin], at HepI [1], the “Blue shift of HepI tryptophan emission λmax” value was “no changes to the emission spectra”; the “Blue shift of HepI tryptophan emission λmax with ODLA and inhibitor” value is given as “unperturbed”. Also, at HepI R60A, the affinity, expressed as Ki, was 6.25 ± 5.43 µM; the “ΔΔG (kcal/mol) Exp” value is 1.4 ± 0.4 kcal/mol; the “ΔG (kcal/mol) Exp” value is -7.1 ± 0.4 kcal/mol; the “kcat” value stood at 0.149 ± 0.013 s⁻¹. In addition, the “Ki relative to WT” value at HepI R60A (HepI R60A vs WT) was “increased the Ki values an order of magnitude”. In assay [2], the “Concentration range over which LPS production decreases” value fell in the range of 25 to 27.5 ng/mL and the IC50 is 0.0262 ± 0.001 µg/mL (≈ 0.045 µM). On HepI [3], the “Increase in unfolding compared to apo HepI” value is ~ 20% and 15–20%; the “Difference in melting temperature of HepI•ODLA complex caused by inhibitor” value is on record as “not observed”. In addition, on HepI [3] (inhibitor added to HepI•ODLA), the “Melting temperature of HepI•ODLA complex with inhibitor” value was “no different from substrate or product alone”.

(Values after article PMC9068772, “Discovery of first-in-class nanomolar inhibitors of heptosyltransferase I reveals a new aminoglycoside target and potential alternative mechanism of action” (Scientific Reports, 2022).)
